Here are results for three compounds from patent publication US20100173959A1, “METHOD OF PROTECTING A PLANT PROPAGATION MATERIAL, A PLANT, AND/OR PLANT ORGANS” (SYNGENTA CROP PROTECTION, INC., priority 2007, published 2010).

Structures are written as SMILES.

For series [1], the system named is Myzus persicae. Description: B1: Myzus persicae (Green Peach Aphid), mixed population, sachet test. The format is in vivo. The settings on record: 144 h, 12.5 ppm in 30% sucrose solution, 6 days after infestation, read-out: control of Myzus persicae (mortality, feeding activity). How it is done: B1: Myzus persicae (Green Peach Aphid) (Mixed Population, Sachet Test)
Each well of a 24-well microtiter plate is filled with 0.6 ml 30% sucrose solution, containing 12.5 ppm of the test compounds. For producing the sachets, the wells are covered with stretched parafilm and infested with a mixed population of Myzus persicae. 6 days after the infestation, samples are checked for mortality (feeding activity).

Series [2] deals with Myzus persicae. Description: B2: Myzus persicae (Green Peach Aphid), mixed population, systemic/feeding activity, curative. The following applies: 144 h, roots of infested pea seedlings in test solution of 6 ppm, 6 days after introduction, read-out: control of Myzus persicae (mortality). The format is in vivo. From the text:
B2: Myzus persicae (Green Peach Aphid) (Mixed Population, Systemic/Feeding Activity, Curative)
Roots of pea seedlings, infested with an aphid population of mixed ages, are placed directly in the test solutions of 6 ppm. 6 days after introduction, samples are checked for mortality and special effects on the plant.

In series [3] the test system is African bean aphid (Aphis craccivora). Kind of series: Example 1: sugarbeet seed treatment, reduction of African bean aphid. The format is in vivo. The settings on record: infested 14 days after sowing, counted 7 days after infestation. How it is done: (§1) Sugarbeet seeds are treated with P1.1, P1.5, P1.6, P1.8, P1.32 or P1.38 at rates of 0.1, 0.3 and 0.6 mg a.i./seed. The seeds are sown into 9-cm pots filled with 280 mL of soil. After placing the seeds on the soil surface they are covered with 50 mL of soil. Before and during the bioassays, the plants are grown in greenhouse chambers at 25° C. during daytime, 23° C. during night, 50-60% rH, a 14-hour photoperiod and artificial lighting when natural light fell below 20 kLux. After sowing, the pots are transferred to the greenhouse chambers, set up in a random fashion and are irrigated as necessary from above. After 14 days, the plants are infested with African bean aphid (Aphis craccivora) by placing one infested pea seedling containing approximately 150 aphids of a population of mixed developmental stages onto each plant. Seven days after infestation, the number of aphids is counted per plant. Each treatment group is replicated 10 times. Each replicate contains 1 plant.

The test system of series [4] is cabbage aphid (Myzus persicae). Kind of series: Example 2: Chinese cabbage seed treatment, reduction of cabbage aphid. The class given is in vivo. The settings on record: infested 14 days after sowing, counted 7 days after infestation. The procedure:
as §1, with “Chinese cabbage” for “Sugarbeet”, “of” for “of 0.1,”, “cabbage” for “African bean”, “(Myzus persicae)” for “(Aphis craccivora)”

Regarding `COc1cccc2c1C(N)=NS2(=O)=O` [P1.1, 3-Amino-4-methoxybenzo[d]isothiazole-1,1-dioxide], in series [1], the mortality at 12.5 ppm turned out to be 100%. In series [2], the mortality at 6 ppm was found to be 100%. Further, the “Efficacy, % (reduction of aphids compared to untreated control plants)” value was 41% in series [3] (0.1 mg/seed); 69% in series [3] (0.3 mg/seed); 92% in series [3] (0.6 mg/seed); 10% in series [4] (0.3 mg/seed); 45% in series [4] (0.6 mg/seed).
With `NC1=NS(=O)(=O)c2cccc(Cl)c21` [P1.5, 3-Amino-4-chlorobenzo[d]isothiazole-1,1-dioxide], the mortality at 12.5 ppm in series [1] was determined as 100%. Moreover, in series [2], the mortality at 6 ppm came to 100%. Besides, the “Efficacy, % (reduction of aphids compared to untreated control plants)” value in series [3] (0.1 mg/seed) is 87%; in series [4] (0.3 mg/seed) it was 11%; in series [4] (0.6 mg/seed), 64%.
Turning to `COc1cccc2c1C(NC(C)=O)=NS2(=O)=O` [P1.8, 3-Acetylamino-4-methoxybenzo[d]isothiazole-1,1-dioxide], the melting point lay within 242 to 245 °C. In addition, in series [3] (0.1 mg/seed), the “Efficacy, % (reduction of aphids compared to untreated control plants)” value is recorded as 8%. Also, in series [3] (0.3 mg/seed), the “Efficacy, % (reduction of aphids compared to untreated control plants)” value is given as 72%. Besides, in series [3] (0.6 mg/seed), the “Efficacy, % (reduction of aphids compared to untreated control plants)” value is recorded as 95%. Further, the “Efficacy, % (reduction of aphids compared to untreated control plants)” value in series [4] (0.3 mg/seed) amounted to 0%. Moreover, the “Efficacy, % (reduction of aphids compared to untreated control plants)” value in series [4] (0.6 mg/seed) is given as 28%.
